This note sets out measurements from ChEMBL document CHEMBL1125759, “A new ionizable chromophore of 1,4-bis(alkylamino)benzo[g]phthalazine which interacts with DNA by intercalation” (J Med Chem, 1991).

Data set [1] in a line: Compound was evaluated for the protonation constant by binding to DNA by intercalation in calf thymus. In kind it is ADME, Bos taurus. As to conditions: cattle.
The test system of data set [2] is HeLa. Nature of the data set: In vitro effective dose for its cytostatic activity against HeLa cells. It counts as functional. As to conditions: Homo sapiens, read-out: ED50 (the source's name).

Converted amounts (≈) assume the structure as drawn.

As for `OCCCNc1nnc(NCCCO)c2cc3ccccc3cc12`, the pKa in data set [1] came to 8.3. Moreover, the EC50 in data set [2] was determined as 25 µg/mL (≈ 76.6 µM). The compound `CN(C)CCCNc1nnc(NCCCN(C)C)c2cc3ccccc3cc12` returned a pKa in data set [1] of 6.2. Also, in data set [2], the EC50 amounted to 1.25 µg/mL (≈ 3.28 µM).

Compound `COCCCNc1nnc(NCCCOC)c2cc3ccccc3cc12` yielded a pKa in data set [1] of 8.3. In addition, in data set [2], the EC50 is 10 µg/mL (≈ 28.2 µM). `COc1cc(NS(C)(=O)=O)ccc1Nc1c2ccccc2nc2ccccc12` [AMSACRINE]: the pKa in data set [1] was found to be 7.4.

In general, pKa refers to the negative logarithm of the acid dissociation constant. High values mean a weaker acid or stronger base, low ones a stronger acid or weaker base.
